Measured values published in ChEMBL document CHEMBL4364276, “Discovery of 4-phenyl-2H-benzo[b][1,4]oxazin-3(4H)-one derivatives as potent and orally active PI3K/mTOR dual inhibitors” (Eur J Med Chem, 2019).

How the values were obtained:
[1] = target: Tyrosine-protein kinase BTK (Homo sapiens) (UniProt Q06187); test: Inhibition of human BTK at 100 nM using KVEKIGEGTYGVVYK as substrate by [gamma-33P]-ATP assay
[2] = target: Serine/threonine-protein kinase 38-like (Homo sapiens) (UniProt Q9Y2H1); test: Inhibition of human STK38L at 100 nM using KKRNRRLSVA as substrate by [gamma-33P]-ATP assay
[3] = target: Serine/threonine-protein kinase Nek8 (Homo sapiens) (UniProt Q86SG6); test: Inhibition of human NEK8 at 100 nM using casein as substrate by [gamma-33P]-ATP assay
[4] = target: Mitogen-activated protein kinase kinase kinase 2 (Homo sapiens) (UniProt Q9Y2U5); test: Inhibition of human MEKK2 at 100 nM using MBP as substrate by [gamma-33P]-ATP assay
[5] = target: Serine/threonine-protein kinase/endoribonuclease IRE1 (Homo sapiens) (UniProt O75460); test: Inhibition of human ERN1 at 100 nM using MBP as substrate by [gamma-33P]-ATP assay
[6] = target: Wee1-like protein kinase (Homo sapiens) (UniProt P30291); test: Inhibition of human WEE1 at 100 nM using MBP as substrate by [gamma-33P]-ATP assay
Sequence of Wee1-like protein kinase (Homo sapiens) (P30291 whole entry, looked up): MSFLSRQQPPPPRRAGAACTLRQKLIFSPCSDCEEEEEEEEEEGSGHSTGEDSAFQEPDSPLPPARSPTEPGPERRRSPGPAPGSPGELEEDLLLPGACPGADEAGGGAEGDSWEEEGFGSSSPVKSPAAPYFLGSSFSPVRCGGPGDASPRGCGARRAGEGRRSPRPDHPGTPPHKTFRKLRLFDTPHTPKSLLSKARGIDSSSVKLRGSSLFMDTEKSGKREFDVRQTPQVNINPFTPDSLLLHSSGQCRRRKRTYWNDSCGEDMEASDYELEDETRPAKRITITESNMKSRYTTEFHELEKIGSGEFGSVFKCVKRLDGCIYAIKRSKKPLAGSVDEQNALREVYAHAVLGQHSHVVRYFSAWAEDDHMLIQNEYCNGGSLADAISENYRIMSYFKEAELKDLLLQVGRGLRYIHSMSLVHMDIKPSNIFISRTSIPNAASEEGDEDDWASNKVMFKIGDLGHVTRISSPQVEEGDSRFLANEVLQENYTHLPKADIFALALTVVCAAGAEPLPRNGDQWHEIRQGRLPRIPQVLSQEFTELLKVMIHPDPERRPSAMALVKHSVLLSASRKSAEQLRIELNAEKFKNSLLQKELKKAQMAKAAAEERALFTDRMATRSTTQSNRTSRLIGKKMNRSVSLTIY

[7] = organism: Homo sapiens; test: Inhibition of human AMPK (A2/B2/G2) at 100 nM using HMRSAMSGLHLVKRR as substrate by [gamma-33P]-ATP assay
[8] = target: Cyclin-dependent kinase 5/CDK5 activator 1 (Homo sapiens) (UniProt Q00535+Q15078); test: Inhibition of human CDK5/p35 at 100 nM using histone H1 as substrate by [gamma-33P]-ATP assay; format: protein-complex assay
Sequence of Cyclin-dependent kinase 5/CDK5 activator 1 (Homo sapiens) (Q00535 whole entry): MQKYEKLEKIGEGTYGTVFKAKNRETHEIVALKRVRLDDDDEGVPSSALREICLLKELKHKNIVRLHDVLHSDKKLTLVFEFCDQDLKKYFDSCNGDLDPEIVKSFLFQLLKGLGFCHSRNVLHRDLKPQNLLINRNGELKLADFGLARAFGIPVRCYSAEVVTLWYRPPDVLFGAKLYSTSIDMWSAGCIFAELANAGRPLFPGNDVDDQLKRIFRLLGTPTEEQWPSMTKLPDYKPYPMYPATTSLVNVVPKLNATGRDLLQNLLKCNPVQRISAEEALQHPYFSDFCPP
Sequence of Cyclin-dependent kinase 5/CDK5 activator 1 (Homo sapiens) (Q15078 99-307 partner limits assumed): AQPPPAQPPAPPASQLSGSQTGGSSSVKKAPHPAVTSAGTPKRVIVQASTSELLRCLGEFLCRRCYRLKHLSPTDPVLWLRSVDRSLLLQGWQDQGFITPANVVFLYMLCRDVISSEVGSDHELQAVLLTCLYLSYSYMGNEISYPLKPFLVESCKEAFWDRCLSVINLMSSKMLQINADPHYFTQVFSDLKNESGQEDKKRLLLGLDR

[9] = target: Tyrosine-protein kinase Yes (Homo sapiens) (UniProt P07947); test: Inhibition of human YES at 100 nM using poly[Glu:Tyr] (4:1) as substrate by [gamma-33P]-ATP assay
Sequence of Tyrosine-protein kinase Yes (Homo sapiens) (P07947 2-543 limits assumed): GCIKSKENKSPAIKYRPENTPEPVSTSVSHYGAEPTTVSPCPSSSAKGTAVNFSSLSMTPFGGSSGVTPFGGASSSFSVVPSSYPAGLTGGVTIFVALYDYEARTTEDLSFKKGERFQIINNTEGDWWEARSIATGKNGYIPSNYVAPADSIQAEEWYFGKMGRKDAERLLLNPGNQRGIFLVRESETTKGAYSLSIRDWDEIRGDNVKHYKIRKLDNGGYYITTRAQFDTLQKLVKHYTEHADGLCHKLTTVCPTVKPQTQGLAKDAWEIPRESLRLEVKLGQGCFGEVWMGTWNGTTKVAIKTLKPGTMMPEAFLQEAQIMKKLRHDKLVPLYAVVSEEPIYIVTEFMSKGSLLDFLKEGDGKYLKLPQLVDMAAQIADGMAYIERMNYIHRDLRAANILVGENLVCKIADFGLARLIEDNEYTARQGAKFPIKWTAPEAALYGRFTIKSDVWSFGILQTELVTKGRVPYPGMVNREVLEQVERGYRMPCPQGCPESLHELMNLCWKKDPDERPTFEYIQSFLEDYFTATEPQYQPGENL

[10] = target: Casein kinase II subunit alpha (Homo sapiens) (UniProt P68400); test: Inhibition of human CK2A at 100 nM using RRRDDDSDDD as substrate by [gamma-33P]-ATP assay
[11] = target: Serine/threonine-protein kinase PAK 2 (Homo sapiens) (UniProt Q13177); test: Inhibition of human PAK2 at 100 nM using RRRLSFAEPG as substrate by [gamma-33P]-ATP assay
Sequence of Serine/threonine-protein kinase PAK 2 (Homo sapiens) (Q13177 whole entry): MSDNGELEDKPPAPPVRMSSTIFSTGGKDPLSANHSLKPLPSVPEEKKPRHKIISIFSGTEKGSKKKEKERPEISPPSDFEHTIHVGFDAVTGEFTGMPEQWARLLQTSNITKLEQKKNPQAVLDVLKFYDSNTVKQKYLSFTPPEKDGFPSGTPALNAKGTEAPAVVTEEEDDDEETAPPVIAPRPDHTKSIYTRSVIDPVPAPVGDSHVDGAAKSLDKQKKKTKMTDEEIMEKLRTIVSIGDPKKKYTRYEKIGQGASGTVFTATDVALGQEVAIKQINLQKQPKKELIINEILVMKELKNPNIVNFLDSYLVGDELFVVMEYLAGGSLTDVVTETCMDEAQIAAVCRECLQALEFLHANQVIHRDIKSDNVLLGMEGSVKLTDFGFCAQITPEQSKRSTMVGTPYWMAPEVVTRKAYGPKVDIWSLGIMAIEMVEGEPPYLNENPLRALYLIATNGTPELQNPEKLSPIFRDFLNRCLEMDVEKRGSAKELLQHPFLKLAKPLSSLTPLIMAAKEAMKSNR

[12] = target: 3-phosphoinositide-dependent protein kinase 1 (Homo sapiens) (UniProt O15530); test: Inhibition of human PDK1/PDPk1 at 100 nM using [KTFCGTPEYLAPEVRREPRILSEEEQEMFRDFDYIADWC as substrate by [gamma-33P]-ATP assay
[13] = target: Tyrosine-protein kinase Mer (Homo sapiens) (UniProt Q12866); test: Inhibition of human c-MER at 100 nM using poly[Glu:Tyr] (4:1) as substrate by [gamma-33P]-ATP assay
[14] = target: Calcium/calmodulin-dependent protein kinase type 1B (Homo sapiens) (UniProt Q6P2M8); test: Inhibition of human CAMK1B at 100 nM using KKALRRQETVDAL as substrate by [gamma-33P]-ATP assay
Sequence of Calcium/calmodulin-dependent protein kinase type 1B (Homo sapiens) (Q6P2M8 whole entry): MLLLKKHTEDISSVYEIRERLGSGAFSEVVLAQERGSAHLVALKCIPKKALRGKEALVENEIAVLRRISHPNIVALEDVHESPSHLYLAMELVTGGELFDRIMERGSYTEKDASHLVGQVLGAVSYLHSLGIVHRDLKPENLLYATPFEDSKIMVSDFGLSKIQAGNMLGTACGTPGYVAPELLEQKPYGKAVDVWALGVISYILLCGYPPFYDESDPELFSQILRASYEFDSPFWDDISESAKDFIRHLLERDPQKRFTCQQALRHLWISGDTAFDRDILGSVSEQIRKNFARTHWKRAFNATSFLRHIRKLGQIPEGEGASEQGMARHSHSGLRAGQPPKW

[15] = Volume of distribution at steady state in Sprague-Dawley rat at 1 mg/kg, iv measured upto 24 hrs by LC-MS/MS analysis; format: ADME, organism-based; conditions: in vivo, read-out: Vdss
[16] = target: Mitogen-activated protein kinase kinase kinase 11 (Homo sapiens) (UniProt Q16584); test: Inhibition of human MLK3 at 100 nM using MBP as substrate by [gamma-33P]-ATP assay
Sequence of Mitogen-activated protein kinase kinase kinase 11 (Homo sapiens) (Q16584 whole entry, looked up): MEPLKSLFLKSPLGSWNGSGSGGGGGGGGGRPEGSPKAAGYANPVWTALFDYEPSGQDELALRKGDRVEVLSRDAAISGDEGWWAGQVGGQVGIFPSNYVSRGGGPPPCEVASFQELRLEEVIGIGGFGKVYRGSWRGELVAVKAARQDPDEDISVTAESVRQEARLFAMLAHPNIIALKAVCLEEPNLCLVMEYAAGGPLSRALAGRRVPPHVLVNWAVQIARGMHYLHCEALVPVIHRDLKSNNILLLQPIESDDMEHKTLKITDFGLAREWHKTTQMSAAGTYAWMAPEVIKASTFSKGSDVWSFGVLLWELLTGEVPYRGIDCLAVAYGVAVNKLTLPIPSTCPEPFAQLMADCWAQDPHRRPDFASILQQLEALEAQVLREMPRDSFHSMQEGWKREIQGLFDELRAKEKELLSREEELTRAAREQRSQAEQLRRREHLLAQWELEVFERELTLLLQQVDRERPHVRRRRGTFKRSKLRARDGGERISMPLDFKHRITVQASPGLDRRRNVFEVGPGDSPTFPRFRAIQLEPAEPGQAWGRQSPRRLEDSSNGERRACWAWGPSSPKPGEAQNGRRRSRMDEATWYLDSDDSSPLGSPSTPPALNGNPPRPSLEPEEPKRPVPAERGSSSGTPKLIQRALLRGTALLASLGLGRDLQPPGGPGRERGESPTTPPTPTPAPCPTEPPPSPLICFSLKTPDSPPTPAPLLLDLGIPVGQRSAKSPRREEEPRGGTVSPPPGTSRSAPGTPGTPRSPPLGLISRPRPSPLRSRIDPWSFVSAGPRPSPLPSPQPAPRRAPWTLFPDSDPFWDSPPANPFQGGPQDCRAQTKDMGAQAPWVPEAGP

[17] = target: Serine/threonine-protein kinase 24 (Homo sapiens) (UniProt Q9Y6E0); test: Inhibition of human MST3 at 100 nM using MBP as substrate by [gamma-33P]-ATP assay
[18] = target: Testis-specific serine/threonine-protein kinase 3 (Homo sapiens) (UniProt Q96PN8); test: Inhibition of human TSSK3 at 100 nM using KKKVSRSGLYRSPSMPENLNRPR as substrate by [gamma-33P]-ATP assay
[19] = target: Protein kinase C eta type (Homo sapiens) (UniProt P24723); test: Inhibition of human PKCeta at 100 nM using ERMRPRKRQGSVRRRV as substrate by [gamma-33P]-ATP assay
[20] = target: Dual specificity mitogen-activated protein kinase kinase 7 (Homo sapiens) (UniProt O14733); test: Inhibition of human MKK7 at 100 nM using JNK as substrate by [gamma-33P]-ATP assay
[21] = target: Serine/threonine-protein kinase B-raf (Homo sapiens) (UniProt P15056); test: Inhibition of human BRAF at 100 nM using MEK1 (K97R) as substrate by [gamma-33P]-ATP assay
[22] = target: Serine/threonine-protein kinase BRSK2 (Homo sapiens) (UniProt Q8IWQ3); test: Inhibition of human BRSK2 at 100 nM using KKLNRTLSFAEPG as substrate by [gamma-33P]-ATP assay
Sequence of Serine/threonine-protein kinase BRSK2 (Homo sapiens) (Q8IWQ3 whole entry): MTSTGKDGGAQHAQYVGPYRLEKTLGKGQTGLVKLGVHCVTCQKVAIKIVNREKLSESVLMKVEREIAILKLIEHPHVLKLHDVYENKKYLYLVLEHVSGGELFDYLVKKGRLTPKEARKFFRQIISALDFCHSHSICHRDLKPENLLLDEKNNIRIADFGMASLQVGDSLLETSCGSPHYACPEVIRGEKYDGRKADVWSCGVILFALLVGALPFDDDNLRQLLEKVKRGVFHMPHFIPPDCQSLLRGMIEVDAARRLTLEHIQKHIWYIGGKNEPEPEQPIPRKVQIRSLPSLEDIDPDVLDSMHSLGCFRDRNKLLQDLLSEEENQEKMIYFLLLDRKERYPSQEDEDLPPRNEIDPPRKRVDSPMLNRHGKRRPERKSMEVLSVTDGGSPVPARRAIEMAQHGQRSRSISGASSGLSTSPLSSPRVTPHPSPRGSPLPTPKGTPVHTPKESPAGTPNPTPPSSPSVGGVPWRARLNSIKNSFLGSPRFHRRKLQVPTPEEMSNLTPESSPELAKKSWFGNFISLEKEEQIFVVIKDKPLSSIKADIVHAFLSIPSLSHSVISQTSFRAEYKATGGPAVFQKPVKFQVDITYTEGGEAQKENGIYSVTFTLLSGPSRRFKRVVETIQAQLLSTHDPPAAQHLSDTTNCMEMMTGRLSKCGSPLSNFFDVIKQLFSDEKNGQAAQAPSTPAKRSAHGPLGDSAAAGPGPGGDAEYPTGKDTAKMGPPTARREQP

[23] = target: Protein kinase C epsilon type (Homo sapiens) (UniProt Q02156); test: Inhibition of human PKCepsilon at 100 nM using ERMRPRKRQGSVRRRV as substrate by [gamma-33P]-ATP assay
Sequence of Protein kinase C epsilon type (Homo sapiens) (Q02156 whole entry): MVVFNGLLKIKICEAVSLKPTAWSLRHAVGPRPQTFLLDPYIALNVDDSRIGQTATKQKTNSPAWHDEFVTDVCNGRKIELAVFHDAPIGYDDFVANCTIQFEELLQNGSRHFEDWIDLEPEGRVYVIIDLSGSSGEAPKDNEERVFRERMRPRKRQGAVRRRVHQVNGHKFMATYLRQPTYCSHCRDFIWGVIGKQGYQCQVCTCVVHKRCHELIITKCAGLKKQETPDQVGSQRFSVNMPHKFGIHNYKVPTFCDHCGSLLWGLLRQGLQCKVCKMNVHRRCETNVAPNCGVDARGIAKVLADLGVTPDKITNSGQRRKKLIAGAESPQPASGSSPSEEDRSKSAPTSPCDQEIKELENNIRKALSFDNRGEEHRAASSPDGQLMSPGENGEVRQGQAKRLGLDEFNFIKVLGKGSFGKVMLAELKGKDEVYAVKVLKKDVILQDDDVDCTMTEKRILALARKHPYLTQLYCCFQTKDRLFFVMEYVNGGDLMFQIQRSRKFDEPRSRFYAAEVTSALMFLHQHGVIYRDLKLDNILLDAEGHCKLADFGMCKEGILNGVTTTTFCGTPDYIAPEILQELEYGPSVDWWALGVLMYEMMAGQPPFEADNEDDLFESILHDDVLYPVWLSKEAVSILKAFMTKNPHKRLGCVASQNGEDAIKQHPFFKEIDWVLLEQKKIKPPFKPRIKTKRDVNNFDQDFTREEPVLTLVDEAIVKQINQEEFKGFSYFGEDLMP

[24] = target: Mitogen-activated protein kinase kinase kinase 8 (Homo sapiens) (UniProt P41279); test: Inhibition of human COT1 at 100 nM using MEK1 as substrate by [gamma-33P]-ATP assay
[25] = target: Cyclin-dependent kinase 4/cyclin D1 (Homo sapiens) (UniProt P11802+P24385); test: Inhibition of human CDK4/cyclin-D1 at 100 nM using RB protein as substrate by [gamma-33P]-ATP assay; format: protein-complex assay
[26] = target: Cyclin-dependent kinase 2/cyclin E1 (Homo sapiens) (UniProt P24864+P24941); test: Inhibition of human CDK2/cyclin-E at 100 nM using histone H1 as substrate by [gamma-33P]-ATP assay; format: protein-complex assay
[27] = target: Serine/threonine-protein kinase DCLK2 (Homo sapiens) (UniProt Q8N568); test: Inhibition of human DCAMKL2 at 100 nM using KKLNRTLSFAEPG as substrate by [gamma-33P]-ATP assay
[28] = target: Tyrosine-protein kinase ABL2 (Homo sapiens) (UniProt P42684); test: Inhibition of human ABL2 at 100 nM using EAIYAAPFAKKK as substrate by [gamma-33P]-ATP assay
[29] = target: Serine/threonine-protein kinase PAK 4 (Homo sapiens) (UniProt O96013); test: Inhibition of human PAK4 at 100 nM using RRRLSFAEPG as substrate by [gamma-33P]-ATP assay
[30] = Toxicity in BALB/c mouse xenografted with human HeLa cells assessed as reduction in body weight at 20 to 50 mg/kg, ig administered for 30 days; format: organism-based; conditions: in vivo, po, 720 h
[31] = target: G protein-coupled receptor kinase 3 (Homo sapiens) (UniProt P35626); test: Inhibition of human GRK3 at 100 nM using casein as substrate by [gamma-33P]-ATP assay

**Q.** Which inhibition [1] does the source give for `COc1ccc(N2C(=O)COc3ccc(-c4cnc(OC)c(NS(=O)(=O)c5ccc(F)cc5)c4)cc32)cc1` here?
**A.** 14.8%

**Q.** What about the inhibition [2] of the same molecule?
**A.** -2.59%

**Q.** And the inhibition [3]?
**A.** 14.4%

**Q.** And the inhibition [4]?
**A.** 28.4%

**Q.** And the inhibition [5]?
**A.** -2.68%

**Q.** What about the inhibition [6] of the same molecule?
**A.** 6.18%

**Q.** And the inhibition [7]?
**A.** -8.51%

**Q.** And the inhibition [8]?
**A.** 8.65%

**Q.** And the inhibition [9]?
**A.** 3.18%

**Q.** And the inhibition [10]?
**A.** 12.7%

**Q.** And the inhibition [11]?
**A.** 10.4%

**Q.** And the inhibition [12]?
**A.** -3.45%

**Q.** What about the inhibition [13] of the same molecule?
**A.** 5.47%

**Q.** And the inhibition [14]?
**A.** 7.52%

**Q.** What about the Vd [15] of the same molecule?
**A.** 1.2 L/kg

**Q.** What about the inhibition [16] of the same molecule?
**A.** 3.29%

**Q.** What about the inhibition [17] of the same molecule?
**A.** 10.6%

**Q.** What about the inhibition [18] of the same molecule?
**A.** -8.01%

**Q.** What about the inhibition [19] of the same molecule?
**A.** 18%

**Q.** What about the inhibition [20] of the same molecule?
**A.** -2.26%

**Q.** And the inhibition [21]?
**A.** 5.74%

**Q.** And the inhibition [22]?
**A.** -1.64%

**Q.** And the inhibition [23]?
**A.** 3.65%

**Q.** And the inhibition [24]?
**A.** 13%

**Q.** What about the inhibition [25] of the same molecule?
**A.** 0.16%

**Q.** What about the inhibition [26] of the same molecule?
**A.** 11.2%

**Q.** And the inhibition [27]?
**A.** 2.1%

**Q.** And the inhibition [28]?
**A.** -2.65%

**Q.** What about the inhibition [29] of the same molecule?
**A.** 7.74%

**Q.** And the Activity [30]?
**A.** Non-Toxic

**Q.** And the inhibition [31]?
**A.** -4.85%
